{
  "source": "patent US10782295B2",
  "about": "“Cysteine-reactive ligand discovery in proteomes” (THE SCRIPPS RESEARCH INSTITUTE, priority 2013, dated 2020)",
  "experiment_in_all_cases": "competitive isoTOP-ABPP, MDA-MB-231 soluble proteome",
  "type_in_all_cases": "binding",
  "key": {"IFIT3": {"target": "T1, IFIT3 (Homo sapiens, UniProt O14879)", "T1 construct": "directly in native proteomes; endogenous in cells; host or cells: MDA-MB-231", "T1 sequence (O14879 1-490)": "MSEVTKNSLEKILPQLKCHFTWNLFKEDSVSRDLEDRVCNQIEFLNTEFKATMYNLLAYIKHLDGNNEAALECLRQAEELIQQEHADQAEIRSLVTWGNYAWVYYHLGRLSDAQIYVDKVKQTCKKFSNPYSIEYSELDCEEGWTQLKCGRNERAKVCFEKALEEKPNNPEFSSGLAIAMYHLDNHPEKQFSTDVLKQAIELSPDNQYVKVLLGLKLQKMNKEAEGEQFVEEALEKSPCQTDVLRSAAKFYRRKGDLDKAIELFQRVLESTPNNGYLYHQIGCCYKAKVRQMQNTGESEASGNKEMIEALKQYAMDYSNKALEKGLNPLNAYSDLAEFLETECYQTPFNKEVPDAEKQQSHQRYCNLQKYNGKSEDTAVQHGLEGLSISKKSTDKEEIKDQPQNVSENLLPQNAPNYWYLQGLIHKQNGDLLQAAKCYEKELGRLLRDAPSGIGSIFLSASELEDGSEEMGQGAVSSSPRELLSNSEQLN", "conditions": "100 μM LDE, 60 min; peptide GLNPLNAYSDLAEFLETEC*YQTPFNK"}, "MACROD1": {"target": "T2, MACROD1 (Homo sapiens, UniProt Q9BQ69)", "T2 construct": "directly in native proteomes; endogenous in cells; host or cells: MDA-MB-231", "T2 sequence (Q9BQ69 1-325)": "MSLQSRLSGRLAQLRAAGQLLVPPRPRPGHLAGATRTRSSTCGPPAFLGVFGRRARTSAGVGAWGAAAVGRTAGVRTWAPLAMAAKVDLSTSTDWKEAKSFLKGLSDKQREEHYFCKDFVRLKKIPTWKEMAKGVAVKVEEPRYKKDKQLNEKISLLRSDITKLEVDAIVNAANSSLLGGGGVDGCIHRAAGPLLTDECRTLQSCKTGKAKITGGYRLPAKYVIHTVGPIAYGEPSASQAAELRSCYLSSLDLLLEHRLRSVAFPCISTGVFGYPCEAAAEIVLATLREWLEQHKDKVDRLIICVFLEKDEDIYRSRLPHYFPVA", "conditions": "100 μM LDE, 60 min; peptide LEVDAIVNAANSSLLGGGGVDGC*IHR"}, "PSMB8": {"target": "T3, PSMB8 (Homo sapiens, UniProt P28062)", "T3 construct": "directly in native proteomes; endogenous in cells; host or cells: MDA-MB-231", "T3 sequence (P28062 73-276)": "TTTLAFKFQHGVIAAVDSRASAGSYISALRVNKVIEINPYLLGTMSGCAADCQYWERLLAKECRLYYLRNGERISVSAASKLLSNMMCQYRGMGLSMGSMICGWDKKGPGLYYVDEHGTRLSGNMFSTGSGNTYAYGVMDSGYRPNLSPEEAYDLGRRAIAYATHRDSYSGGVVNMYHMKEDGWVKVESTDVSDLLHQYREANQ", "conditions": "100 μM LDE, 60 min; peptide LLSNMMC*QYR"}},
  "data": [
    {"smiles": "CCCCCCCCCCCCC/C=C/C=O", "note": "[2-HD, 2-trans-hexadecenal]", "values": [
      {"measurement": "R value (isoTOP-ABPP ratio heavy/light) for IA-labeled cysteine of IFIT3", "setting": "IFIT3", "value": 1.23},
      {"measurement": "R value (isoTOP-ABPP ratio heavy/light) for IA-labeled cysteine of MACROD1", "setting": "MACROD1", "value": 1.02},
      {"measurement": "R value (isoTOP-ABPP ratio heavy/light) for IA-labeled cysteine of PSMB8", "setting": "PSMB8", "value": 1.05}
    ]},
    {"smiles": "CCCCCC(O)/C=C/C=O", "note": "(stereo not drawn) [4-HNE, 4-Hydroxynonenal]", "values": [
      {"measurement": "R value (isoTOP-ABPP ratio heavy/light) for IA-labeled cysteine of IFIT3", "setting": "IFIT3", "value": 1.51},
      {"measurement": "R value (isoTOP-ABPP ratio heavy/light) for IA-labeled cysteine of MACROD1", "setting": "MACROD1", "value": 1.56},
      {"measurement": "R value (isoTOP-ABPP ratio heavy/light) for IA-labeled cysteine of PSMB8", "setting": "PSMB8", "value": 1.19}
    ]},
    {"smiles": "CCCCC/C=C/C=C1/C(=O)C=C[C@@H]1C/C=C\\CCCC(=O)O", "note": "[PGJ2, 15-deoxy-Δ12,14-prostaglandin J2]", "values": [
      {"measurement": "R value (isoTOP-ABPP ratio heavy/light) for IA-labeled cysteine of IFIT3", "setting": "IFIT3", "value": 9.43},
      {"measurement": "R value (isoTOP-ABPP ratio heavy/light) for IA-labeled cysteine of MACROD1", "setting": "MACROD1", "value": 7.65},
      {"measurement": "R value (isoTOP-ABPP ratio heavy/light) for IA-labeled cysteine of PSMB8", "setting": "PSMB8", "value": 5.86}
    ]}
  ]
}
